Experimental data taken from patent publication US8936941B2, “Compositions useful for cancer detection and treatment, a cancer stem cell model, and methods of production and use thereof” (priority 2008, dated 2015).
“Also recorded” adds a separate entry of the source.

What was measured:
[1] = system: HCT116 tumor xenografts; assay: HCT116 tumor xenograft model in athymic nude mice, intratumoral treatment; type: in vivo
Excerpt: Real-time reverse transcription-PCR analyses. Total RNA isolated either from cells or from human colon cancer cell tumor xenograft samples was subjected to reverse transcription with Superscript™ II RNase H—Reverse Transcriptase and random hexanucleotide primers (Invitrogen, Carlsbad, Calif.). The cDNA was subsequently used to perform Real-time PCR by SYBR chemistry (SYBR® Green I; Molecular Probes) for specific transcripts using gene specific primers and Jumpstart Taq DNA polymerase (Sigma-Aldrich, St. Louis, Mo.). […] The changes in mRNA were expressed as fold change relative to control with ±SEM value.
miRNA analysis. Total miRNA was isolated using mirVana™ miRNA isolation kit (Ambion Inc.). Total miRNA isolated either from cells or from human colon cancer cell tumor xenograft samples were subjected to reverse transcription with Superscript™ II RNase H—Reverse Transcriptase and random hexanucleotide primers (Invitrogen, Carlsbad, Calif.). The cDNA was subsequently used to perform Real-time PCR by SYBR chemistry (SYBR® Green I; Molecular Probes) for pri-let-7a transcript using specific primers and Jumpstart Taq DNA polymerase (Sigma-Aldrich, St. Louis, Mo.). […] The changes in pri-miRNA were expressed as fold change relative to control with ±SEM value. Primers used are: […]
Western Blot analysis. HCT116 and SW480 cells were cultured in a 6 well plates to 40% confluency and were transfected with si-DCAMKL-1 or si-Scr for 72 h. Cells or the tumor xenograft samples were lysed and the concentration of protein was determined by BCA protein assay kit (Pierce Biotechnology Inc., Rockford, Ill.). […] The membrane was blocked in 5% non-fat dry milk for 1 h and probed overnight with a rabbit anti-DCAMKL-1 antibody (Abcam Inc., Cambridge, Mass.) or with rabbit anti-c-Myc antibody (Santa Cruz). Subsequently, the membrane was incubated with anti-rabbit or anti-goat IgG horseradish peroxidase-conjugated antibodies (Amersham-Pharmacia) for 1 h at room temperature. The 82 kDa DCAMKL-1 and 49 kDa c-Myc proteins were detected using ECL™ Western Blotting detection reagents (Amersham-Pharmacia). Actin (43 kDa), used as loading control was identified using a goat polyclonal IgG (Santa Cruz Biotechnology Inc., Santa Cruz, Calif.).
Immunohistochemistry. Heat Induced Epitope Retrieval was performed on 4 μm formalin-fixed paraffin-embedded sections utilizing a pressurized Decloaking Chamber (Biocare Medical) in citrate buffer (pH 6.0) at 99° C. for 18 min. (a) Brightfield: Slides were incubated in 3% hydrogen peroxide, then normal serum and BSA at room temperature for 20 min. After incubation with primary antibody [DCAMKL-1 C-terminal (Abcam), anti-c-Myc (Santa Cruz Biotechnologies), L-FABP (Santa Cruz Biotechnologies)], the slides were incubated in peroxidase-conjugated EnVision™+polymer detection kit (DAKO). Slides were developed with Diaminobenzidine (Sigma). (b) Fluorescence: Slides were first incubated in Image-iT FX signal enhancer (Invitrogen), followed by normal serum and BSA at room temperature for 20 min.
Xenograft tumor model. (a) Liposomal preparation: siRNA was administered into the xenografts after incorporation into 1,2-Dioleoyl-sn-Glycero-3-Phosphocholine (DOPC) (Avanti Polar Lipids, Alabaster, Ala.). DOPC and siRNA were mixed in the presence of excess tertiary butanol at a ratio of 1:10 (w/w) (siRNA/DOPC). Tween 20 (Sigma-Aldrich) was added to the mixture at a ratio of 1:19 Tween 20:siRNA/DOPC. The mixture was vortexed and frozen in an acetone/dry ice bath and lyophilized. Before administration, the siRNA preparation was reconstituted in 0.9% sterile saline and injected at a dose of 50 μl (5 μM) per injection. (b) Tumor therapy: Female athymic nude mice (NCr-nu) were purchased from the National Cancer Institute-Frederick Cancer Research and Development Center (Frederick, Md.) and housed in specific pathogen-free conditions.

[2] = system: let-7a miRNA; assay: pLet7a-Luc luciferase reporter gene assay in AsPC-1 cells; type: cell-based, human
Excerpt: (§1) Luciferase Reporter Gene Assay: pLet7a-Luc reporter vector contains a let-7a miRNA specific binding site at the 3′ UTR of the firefly (Photinus pyralis) luciferase gene, pMiR-144-Luc reporter vector containing miR-144 miRNA specific binding site at the 3′UTR of the firefly luciferase gene and KRAS-Luc reporter vector containing specific binding sites for let-7 family members at the 3′UTR of the firefly luciferase gene were obtained from Signosis, Inc. (Sunnyvale, Calif.). Human pancreatic cancer cell lines were transfected with the pLet7a-Luc, pMiR-144-Luc and KRAS-Luc reporter vectors separately with Renilla luciferase expressing plasmid pRL-TK (Promega) along with DCAMKL-1, or scrambled siRNA-using siPORT™ NeoFX™ transfection reagent (Ambion, Inc.). Luciferase activity was determined as per the manufacturer's instructions (Dual Luciferase Reporter Assay System; Promega) using a BioTek Synergy HT (Winooski, Vt.) as described herein above. The activity, normalized to Renilla luciferase activity, is presented as relative luciferase units relative to control with ±SEM values. Assays were performed in triplicate wells, and experiments were repeated 3 times.

[3] = system: let-7 family binding sites (similar to KRAS 3' UTR); assay: KRAS-Luc luciferase reporter gene assay in AsPC-1 cells; type: cell-based, human
Excerpt: as §1

[4] = real-time RT-PCR, compared to control and si-Scr treated tumors

## si-DCAMKL-1: siRNA targeting the coding region of DCAMKL-1 (NM_004734), sequence GGGAGUGAGAACAAUCUAC (SEQ ID NO:3) (chemistry not given here; listed as Homo sapiens)
[1]; Western blot
  DCAMKL-1 protein in tumors: reduced expression
[1]; Western blot analysis
  Notch-1 and cleaved Notch-1 protein in tumors: marked reduction
[1]; Western blot and immunohistochemical analyses
  c-Myc protein in tumors: striking reduction
[1]; compared to controls
  reduction in Notch-1 mRNA in tumors: 55%
  reduction in c-Myc mRNA in tumors: 45%
[1]; [4]
  downregulation of DCAMKL-1 mRNA expression in tumors: 55%
  increase in pri-let-7a miRNA expression in tumors: > 3 fold
[1]; siRNA in liposome preparation injected into tumors from day 15, every third day, 5 doses
  tumor size / xenograft growth: statistically significant reduction; also recorded: near complete tumor growth arrest
[1]; tumors excised at day 28, after 5 injections
  tumor weight: significantly decreased
[2]
  luciferase activity (let-7a binding site in 3' UTR): dose-dependent reduction
[3]
  luciferase activity (KRAS-Luc, let-7 family binding sites): dose-dependent reduction
